# Experiments:
# Assay type in all cases: physicochemical
# [1] = Storage stability of SNAP in VASELINE® (UV-Vis % Recovery); conditions: room temperature
# Method: The stability of 5 wt % and 10 wt % SNAP in petroleum jelly was tested. The petroleum jelly used was VASELINE®.
# Mixtures of 5 wt % SNAP powder or 10 wt % SNAP powder in VASELINE® were mixed until homogeneity was achieved. Each homogeneous mixture was spread out on a weigh boat and dried under vacuum and desiccant for 24 hours. Afterwards, individual samples were weighed out into individual amber glass vials. Each sample's mass was recorded to obtain the theoretical amount of SNAP in each sample. Septum caps were used to allow purging of each sample with nitrogen gas for storage. All caps were then wrapped in parafilm, and then each vial was wrapped in aluminum foil to ensure that the samples are not exposed to light. All samples were stored in the dark at room temperature (˜25° C. in this example).
# To quantify the amount of SNAP in each VASELINE® sample, UV-Vis was used. After recording the absorption of a sample, Beer's law (A=εbc, where A=absorption, ε=922 M^−1 cm^−1, b=1 cm, and c=concentration) was used to calculate the concentration of SNAP. These measurements were made at different times over several months.
# When a stored SNAP/VASELINE® sample was going to be analyzed, it was opened and 40 mg of the sample was retrieved. […] The SNAP solution was diluted 1:10 twice, and used to obtain UV-Vis absorbance values between 0.2 and 2 AU (absorbance units) at […]. […]
# [2] = NO release from 1 mM GSNO bulk solution after addition of metal ions (chemiluminescence analyzer); conditions: 100 μL of 1 mM salt into 2 mL of 1 mM GSNO, 10 mM Tris-HCl pH 7.4, dark, 24° C.
# Method: Another experiment was performed to determine whether zinc ions can increase NO proliferation from GSNO in the dark at 24° C. NO release was measured using a nitric oxide (chemiluminescence) analyzer. Throughout the analysis, each solution was bubbled with N2 gas at a rate of 50 mL/min. Any generated NO was carried into the analyzer by a N2 sweep gas. All of the solutions were made with 10 mM Tris-HCl buffer (pH 7.4). A bulk solution was prepared including 1 mM GSNO in the buffer. 2 mL of this bulk solution were added to a sample cell and the analyzer was allowed to equilibrate for 1 minute. At t=1 minute, 100 μL of 1 mM zinc chloride (ZnCl2) was added to the bulk solution. […] For the control, 100 μL of the buffer (10 mM Tris-HCl, pH 7.4) was added into the bulk solution at t=1 minute. The same insignificant burst was observed. For each scenario, at t=10.5 minutes, 100 μL of 1 mM CuCl2 was added to the bulk as a positive control.
# [3] = Storage stability of GSNO in VASELINE® (UV-Vis % Recovery); conditions: room temperature (18° C. to about 25° C.)
# Method: The stability of 10 wt % GSNO in petroleum jelly was tested. The petroleum jelly used was VASELINE®.
# A mixture 10 wt % GSNO in VASELINE® was mixed until homogeneity was achieved. The homogeneous mixture was spread out on a weigh boat and dried under vacuum and desiccant for 24 hours. Afterwards, individual samples were weighed out into individual amber glass vials. Each sample's mass, ranging from 15-40 mg per sample, was recorded to obtain the theoretical amount of GSNO in each sample. Septum caps were used to allow purging of each sample with nitrogen gas for storage. Each sample was purged under nitrogen gas for 5 hours. […]
# To quantify the amount of GSNO in each VASELINE® sample, ultraviolet-visible spectroscopy (UV-Vis) was used. […]
# When a stored GSNO/VASELINE® sample was going to be analyzed, it was opened, subjected to 5 mL of xylene, vortexed for 30 seconds, and stirred for 10 minutes. […] An aliquot of the aqueous layer was taken and the absorbance spectrum was captured from 200-600 nm using UV-Vis to quantitate the level of GSNO present in the GSNO/VASELINE® sample. […]
# UV-Vis spectroscopy was used to determine the stability of GSNO in VASELINE®. […] After sample prep, the aliquot of the aqueous layer was taken in an appropriate volume so that the absorbance measured would be <1 at 334 nm. The sample was further diluted if necessary to achieve an absorbance of <1. […]
smiles,measurement,setting,value
"CC(=O)N[C@@H](C(=O)O)C(C)(C)SN=O (racemic) [SNAP, S-nitroso-n-acetylpenicillamine]",period for which petroleum jelly is a stable carrier,[1]; higher amounts of SNAP (10 wt % SNAP),at least 2 months
same,period for which petroleum jelly is a stable carrier,[1]; lower amounts of SNAP (5 wt % SNAP),at least 6 months
[Cl][Cu][Cl] [CuCl2],NO release on addition to GSNO bulk solution (in words),[2],large burst in NO release
"N[C@@H](CCC(=O)N[C@@H](CSN=O)C(=O)NCC(=O)O)C(=O)O [GSNO, S-nitrosoglutathione]",period for which petroleum jelly is a stable carrier,[3],at least 300 days
"[Cl-].[Cl-].[Zn+2] [ZnCl2, zinc chloride]",NO release on addition to GSNO bulk solution (in words),[2],"small, insignificant burst of NO"

# Reference: patent US11998513B2, “Two-part nitric oxide generating topical compositions” (THE REGENTS OF THE UNIVERSITY OF MICHIGAN, priority 2018, dated 2024)
